Measurements from the NIST ThermoML archive (doi:10.1021/je800244q).
Several values for one entry are separate records, joined by “and”; a condition that tells them apart may be missing. Equal values may be shown once. Numbers after ± are expanded uncertainties.

What was measured:
[1] = refractive index (Na D-line) (dimensionless); settings: 298.15 K; 101.33 kPa; Liquid; Standard Abbe refractometry
[2] = molar heat capacity at constant pressure; settings: 101.33 kPa, Liquid, Small sample (50 mg) DSC
[3] = Liquid; for mass density: Vibrating tube method; for speed of sound: Pulse-echo method

CC(O)CC(C)(C)O (centres undefined) [2-methyl-2,4-pentanediol]
Settings | refractive index
[1] | 1.4258 ± 0.0005

[2]
Settings | molar heat capacity at constant pressure [J/K/mol]
284.16 K | 250.63 ± 4.3
288.14 K | 254.33 ± 4.4
293.14 K | 258.4 ± 4.5
298.16 K | 262.4 ± 4.5
303.15 K | 266.42 ± 4.6
308.15 K | 270.35 ± 4.7
313.15 K | 274.7 ± 4.8
318.15 K | 279.12 ± 4.8
323.15 K | 283.62 ± 4.9
328.15 K | 288.35 ± 5
333.15 K | 293.21 ± 5.1
338.15 K | 298.13 ± 5.2
343.15 K | 303.01 ± 5.2
348.15 K | 307.95 ± 5.3
353.14 K | 314.8 ± 5.5
358.16 K | 318.39 ± 5.5

[3]
Settings | mass density | speed of sound [m/s]
278.15 K, 101.33 kPa | 932.344 ± 0.24 kg/m3 | –
283.15 K, 101.33 kPa | 928.795 ± 0.24 kg/m3 | –
288.14 K, 100 kPa | – | 1326.5 ± 2.3
288.15 K, 101.33 kPa | 925.238 ± 0.24 kg/m3 | 1326.4 ± 1.6
291.11 K, 100 kPa | – | 1317.1 ± 2.3
292.85 K, 101320 kPa | – | 1675.8 ± 2.5
292.86 K, 15200 kPa | – | 1382.2 ± 2.3
292.86 K, 30390 kPa | – | 1443.5 ± 2.4
292.86 K, 45590 kPa | – | 1499.7 ± 2.4
292.86 K, 60790 kPa | – | 1551.7 ± 2.4
292.86 K, 75990 kPa | – | 1600.9 ± 2.5
292.86 K, 91180 kPa | – | 1646.9 ± 2.5
293.14 K, 100 kPa | – | 1310.7 ± 2.3
293.15 K, 101.33 kPa | 921.71 ± 0.24 kg/m3 and 921.676 ± 0.24 kg/m3 | 1310.7 ± 1.6
298.15 K, 100 kPa | – | 1295.2 ± 2.3
298.15 K, 101.33 kPa | 918.16 ± 0.24 kg/m3 and 918.11 ± 0.24 kg/m3 | 1295.2 ± 1.6
298.15 K, 15200 kPa | – | 1366.7 ± 2.4
298.15 K, 30390 kPa | – | 1428.8 ± 2.4
298.15 K, 45590 kPa | – | 1485.4 ± 2.4
298.15 K, 60790 kPa | – | 1538.1 ± 2.4
298.15 K, 75990 kPa | – | 1587.3 ± 2.5
298.15 K, 91180 kPa | – | 1634 ± 2.5
298.15 K, 101320 kPa | – | 1663.4 ± 2.5
301.02 K, 100 kPa | – | 1286.3 ± 2.3
303.13 K, 30390 kPa | – | 1414.6 ± 2.4
303.14 K, 15200 kPa | – | 1351.4 ± 2.4
303.14 K, 45590 kPa | – | 1472.1 ± 2.4
303.14 K, 60790 kPa | – | 1525.2 ± 2.4
303.14 K, 75990 kPa | – | 1575.1 ± 2.5
303.14 K, 91180 kPa | – | 1622.1 ± 2.5
303.14 K, 101320 kPa | – | 1651.8 ± 2.5
303.15 K, 100 kPa | – | 1279.9 ± 2.3
303.15 K, 101.33 kPa | 914.59 ± 0.24 kg/m3 | 1279.8 ± 1.6
303.16 K, 101.33 kPa | 914.548 ± 0.24 kg/m3 | –
308.13 K, 15200 kPa | – | 1336.9 ± 2.4
308.13 K, 30390 kPa | – | 1400.8 ± 2.4
308.13 K, 45590 kPa | – | 1459.2 ± 2.4
308.13 K, 60790 kPa | – | 1513 ± 2.4
308.13 K, 75990 kPa | – | 1563.1 ± 2.5
308.13 K, 91180 kPa | – | 1610.8 ± 2.5
308.13 K, 101320 kPa | – | 1640.8 ± 2.5
308.15 K, 100 kPa | – | 1264.7 ± 2.3
308.15 K, 101.33 kPa | 910.981 ± 0.24 kg/m3 and 911.02 ± 0.24 kg/m3 | 1264.7 ± 1.6
308.18 K, 100 kPa | – | 1264.6 ± 2.3
313.1 K, 15200 kPa | – | 1323 ± 2.3
313.1 K, 30390 kPa | – | 1387.6 ± 2.4
313.1 K, 45590 kPa | – | 1446.5 ± 2.4
313.1 K, 60790 kPa | – | 1501 ± 2.4
313.1 K, 75990 kPa | – | 1551.6 ± 2.5
313.1 K, 101320 kPa | – | 1629.9 ± 2.5
313.11 K, 91180 kPa | – | 1599.6 ± 2.5
313.15 K, 101.33 kPa | 907.43 ± 0.24 kg/m3 and 907.411 ± 0.24 kg/m3 | 1249.6 ± 1.6
313.16 K, 100 kPa | – | 1249.6 ± 2.3
318.15 K, 101.33 kPa | 903.84 ± 0.24 kg/m3 and 903.834 ± 0.24 kg/m3 | 1234.7 ± 1.6
318.19 K, 100 kPa | – | 1234.6 ± 2.3
318.29 K, 15200 kPa | – | 1308.8 ± 2.4
318.29 K, 30390 kPa | – | 1374.5 ± 2.4
318.29 K, 45590 kPa | – | 1434.2 ± 2.4
318.29 K, 60790 kPa | – | 1489.3 ± 2.4
318.29 K, 75990 kPa | – | 1539.5 ± 2.5
318.29 K, 91180 kPa | – | 1588.5 ± 2.5
318.29 K, 101320 kPa | – | 1619.2 ± 2.5
323.15 K, 101.33 kPa | 900.247 ± 0.24 kg/m3 | –
328.16 K, 101.33 kPa | 896.647 ± 0.24 kg/m3 | –
333.16 K, 101.33 kPa | 893.033 ± 0.24 kg/m3 | –
338.15 K, 101.33 kPa | 889.4 ± 0.24 kg/m3 | –
343.15 K, 101.33 kPa | 885.746 ± 0.24 kg/m3 | –
348.15 K, 101.33 kPa | 882.068 ± 0.25 kg/m3 | –
353.15 K, 101.33 kPa | 878.362 ± 0.25 kg/m3 | –
358.15 K, 101.33 kPa | 874.626 ± 0.25 kg/m3 | –
